Test results reported in patent US10732172B1, “Methods, systems, and compositions for determining blood clot formation, and uses thereof” (President and Fellows of Harvard College, priority 2015, dated 2020).
“Also recorded” adds a separate entry of the source.

System: HUVECs
Assay: Immunostaining of TNF-α stimulated endothelium in microchannel
Type: cell-based, human
Procedure: The microfluidic devices are left overnight at 37° C. in a 5% carbon dioxide (“CO2”) incubator, after which they are rinsed with Endothelial Growth Medium-2 (“EGM-2”) from Lonza. Human Umbilical Vein Endothelial Cells (“HUVEC”) from a mixed donor, by Lonza, are kept in culture and suspended at 12.5 million cells/milliliter (“mL”) in EGM-2, after confluence. The suspension is introduced into the collagen-coated microchannels, after which the microfluidic devices are incubated upside down for 20 minutes. A fresh HUVEC suspension is then introduced in the microchannels, after which the microfluidic devices are incubated for eight hours to promote cell attachment across the channel. The microchannels are, then, rinsed with EGM-2, sometimes containing a freshly prepared solution of tumor necrosis factor (“TNF-α”), which is a recombinant from E. coli from Sigma. Antibodies against intercellular adhesion molecule-1 (“ICAM-1”) and vascular adhesion molecule-1 (“VCAM-1”), tissue factor (from Santa Cruz), VWF (from Abcam) and VE-Cadherin (from Santa Cruz) were perfused into the microfluidic devices after fixing the endothelium with 2% paraformaldehyde for ten minutes, incubating the endothelium for three hours, and counterstaining with a secondary fluorescent IgG antibody for three hours.
Multiple endothelial adhesion molecules are involved in the recruitment of blood cells and platelets in thrombosis in vivo. In previous studies, treatment of a living endothelium cultured in microfluidic channels with TNF-α results in an increase in expression of surface adhesion molecules, such as ICAM-1 and VCAM-1 within four hours after addition. To explore whether a fixed endothelium retains expression of these and other surface molecules that could potentially exacerbate thrombosis, the endothelium is first activated in the device by adding increasing doses of TNF-α, e.g., 0, 5, and 100 nanograms/millliter (“ng/ml”), for approximately 18 hours. The endothelium cells are fixed with 4% paraformaldehyde in phosphate-buffered saline (“PBS”) for 15 minutes at room temperature, are rinsed three times with PBS, and, then, stored in PBS at 4° C. in a humid environment.
Human umbilical vein endothelial cells (HUVECs, Lonza) were cultured in Endothelial Growth Medium-2 (EGM-2, Lonza) and used between passages 3 and 7. Before seeding HUVECs in the devices, the microchannels were pre-treated with 1% (3-aminopropyl)-trimethoxysilane in phosphate-buffered saline (PBS) for 10 min, flushed sequentially with 70% ethanol in water and 100% ethanol, and then incubated at 80° C. for two hours before rat tail collagen I (100 μg/ml in PBS; BD Biosciences) was introduced in the channels. Some of the devices were used with the collagen coating alone (without cells) after incubation overnight at 37° C. and flushing of the channels with EGM-2. In other studies for comparison, HUVECs (12.5×10^6 cells/ml) were introduced into the collagen-coated channels and incubated for 20 min at 37° C. to promote cell attachment before a second similar HUVEC suspension was then introduced and the devices were incubated upside down for an additional 20 min to seed the cells on the ceiling and walls of the microfluidic channels. Channels were then flushed with EGM-2 and the devices were incubated at 37° C. under 5% CO2 for 24 hours to promote HUVEC monolayer formation on all exposed surfaces of the microchannel. In some cases, the medium was supplemented with one or more inflammatory cytokines (e.g., 5 or 100 ng/ml TNF-α (Sigma)) to activate the HUVEC monolayer. Fluorescence microscopy was performed on endothelium that was fixed with 4% formaldehyde (Sigma) and stained with antibodies against TF (Santa Cruz), vWF (Abeam), VE-Cadherin (Santa Cruz), followed by counterstaining with phalloidin and DAPI (Invitrogen).

[1] = TNF-α before fixation, versus untreated

tumor necrosis factor-α [TNF-α]
ICAM-1 expression on living endothelium (HUVECs stimulated with various doses of TNF-α): increased with increase in TNF concentration; also recorded: dose-dependent activation of ICAM-1; also recorded: dose-dependent surface expression of adhesion molecule ICAM-1; also recorded: increased in a dose-dependent manner
tissue factor (TF) expression on living endothelium (HUVECs, TNF-α 5 or 100 ng/ml): increase in the endothelial expression
von Willebrand Factor (vWF) expression on living endothelium (HUVECs, TNF-α 5 or 100 ng/ml): increase in the endothelial expression
VCAM-1 immunofluorescence on fixed endothelium (TNF-α 0, 5, 100 ng/ml for about 18 hours before fixation): dose-dependent increase
ICAM-1 immunofluorescence on fixed endothelium (TNF-α 0, 5, 100 ng/ml for about 18 hours before fixation, normalized to untreated): dose-dependent increase
VWF immunofluorescence on fixed endothelium [1]: dose-dependent increase; also recorded: higher levels
tissue factor immunofluorescence on fixed endothelium [1]: dose-dependent increase; also recorded: higher levels
